Results on 16 compounds are retold here after PubChem BioAssay (NCI).

Values joined by “and” are separate entries in the source; they are usually repeats but may differ in a detail not shown here. Identical values can stand only once.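 Values below derive from 48-hour exposures of cells grown in 96-well plates, with endpoints linearly interpolated between the two concentrations bracketing the appropriate inhibition level. GI50 is the concentration that inhibits growth by half. Definition used: TGI = concentration required for complete inhibition of growth.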

What all share (assay): NCI-60 cell line screen, 48 h
Assay [1] deals with SF-295 CNS.
In assay [2] the test system is MCF7 breast.
The subject of assay [3] is PC-3 prostate.
Assay [4] deals with NCI/ADR-RES ovarian.
Assay [5] has as its system OVCAR-5 ovarian.
Assay [6] has as its system HS 578T breast.
The subject of assay [7] is BT-549 breast.
Assay [8] deals with SR leukemia.
In assay [9] the test system is ACHN renal.
Assay [10] has as its system COLO 205 colon.

For the compound `Cc1nnc(-c2cccc(-c3ccc(C(=O)NCC4CC4)cc3)c2)o1`, the GI50 in assay [1], in [2], in [3], in assay [4], in [5] and in assay [6] was above 25 µM throughout. The GI50 in assay [7], in [8], in assay [9] and in [10] was above 25 µM in each case. The TGI in [1], in assay [2], in assay [3], in assay [4], in assay [5] and in [6] was above 25 µM in each case. For the same compound, the TGI in [7], in assay [8], in assay [9] and in assay [10] was above 25 µM each time.
On to `O=Nc1ccc(NO)c2ccccc12`, for which the GI50 was 14.8 µM in assay [1]; 10.5 µM in [2]; 2.44 µM in assay [3]; 2.92 µM in assay [4]; 18.6 µM in [5]; 28.3 µM in assay [6]. Also, the GI50 is 15.7 µM in assay [7], 16.3 µM in assay [8], 12.6 µM in [9] and 14.7 µM in assay [10]. The TGI in assay [1] was 28.6 µM; in [2], 31.3 µM; in assay [3], 13.2 µM; in [4], 15.8 µM; in [5] it was 35.5 µM; in assay [6], above 100 µM. For the same compound, the TGI came to 29.4 µM in assay [7], 62 µM in assay [8], 25.9 µM in assay [9] and 29.3 µM in [10].
`Cc1csc(/C=C/C(=O)c2nnn(-c3ccnc4c(C(F)(F)F)cccc34)c2C)c1`: the GI50 is above 100 µM in assay [1]; above 100 µM in assay [2]; 29.7 µM in assay [3]; 47.7 µM in [4]; above 100 µM in [5]; above 100 µM in [6]. Besides, the GI50 in assay [7] is above 100 µM; in assay [8], 23 µM; in assay [9], above 100 µM; in [10] it was 41.3 µM. For the same compound, the TGI in assay [1], in [2], in assay [3], in [4], in [5] and in assay [6] was above 100 µM each time. The TGI in assay [7], in assay [8], in assay [9] and in assay [10] was above 100 µM in each case.
As for `O=C(c1ccccc1)C(CN1CCCCC1)c1ccccc1` (centres undefined), the GI50 in assay [1] was 4.85 µM; in [2] it was 2.81 µM; in assay [3] it was 1.69 µM; in assay [4], 1.27 µM; in assay [5] it was 2.67 µM; in assay [6], 4.49 µM. The GI50 is 1.6 µM in [7], 0.539 µM in [8], 0.941 µM in assay [9] and 1.57 µM in [10]. The TGI came out at 17.5 µM in assay [1]; 37.8 µM in assay [2]; 3.83 µM in [3]; 2.9 µM in [4]; 5.43 µM in assay [5]; 33.2 µM in assay [6]. The TGI in assay [7] came to 3.19 µM; in assay [8] it was 4.26 µM; in assay [9], 2.13 µM; in assay [10], 3.14 µM.
Consider `Cc1nc(-c2cn3c(n2)-c2ccc(-c4cnn(C(C)(C)C(N)=O)c4)cc2OCC3)n(C(C)C)n1`, for which the GI50 in [1] is 0.894 µM and 0.838 µM; in assay [2], < 0.01 µM and 0.00991 µM; in [3] it was 0.249 µM and 0.374 µM; in assay [4] it was 8.25 µM and > 7.21 µM; in [5], 0.17 µM and 0.976 µM; in assay [6], 0.147 µM and 0.169 µM. Also, the GI50 in assay [7] is 0.633 µM and 0.594 µM; in [8] it was 4.97 µM and 8.69 µM; in assay [9] it was 0.647 µM and 1.33 µM; in assay [10], 0.109 µM and 0.203 µM. Also, the TGI in assay [1] is 16.7 µM and > 10 µM; in assay [2] it was above 50.5 µM; in [3], above 75.3 µM; in [4] it was above 83.1 µM; in [5], 32.3 µM and > 10 µM; in assay [6], 13 µM and > 10 µM. Moreover, the TGI in [7] is 17.4 µM and > 10 µM; in assay [8] it was 26.1 µM and > 10 µM; in assay [9] it was above 100 µM; in [10], 16.6 µM and > 10 µM.
For the compound `COc1cccc(NC(=O)c2sc3nc(C)c(C(O)c4ccccc4)cc3c2N)c1` (centres undefined), the GI50 in assay [1] was 0.276 µM; in [2], 0.0698 µM; in assay [3], 0.49 µM; in assay [4], 0.245 µM; in assay [5], 0.611 µM; in assay [6], 0.222 µM. In addition, the GI50 was 0.335 µM in [7], 0.0503 µM in assay [8], 0.601 µM in assay [9] and 2.42 µM in assay [10]. Also, the TGI in [1] turned out to be 6.82 µM; in assay [2], 13.9 µM; in assay [3], 22.3 µM; in [4], 0.941 µM; in [5], 19.2 µM; in assay [6], 3.21 µM. For the same compound, the TGI in assay [7] amounted to 19.5 µM; in assay [8] it was 22.1 µM; in [9], 18.2 µM; in [10], 13.6 µM.
`COc1c2ccoc2c(OC)c2oc(=O)ccc12`: the TGI in assay [1], in assay [2], in assay [3], in assay [4], in assay [5] and in [6] was above 100 µM throughout. Also, the TGI in [7], in [8], in assay [9] and in assay [10] was above 100 µM in each case.
For the compound `COc1cc(C2SCC(=O)N2c2ncc(C)s2)cc(OC)c1OC` (centres undefined), the GI50 in assay [1] is 9.23 µM; in assay [2], above 50 µM; in [3], 31.4 µM; in assay [4] it was 29 µM; in [5] it was above 50 µM; in [6], 44.6 µM. Moreover, the GI50 was 37.5 µM in assay [7], 3.06 µM in assay [8], 30.8 µM in assay [9] and 17.5 µM in [10]. Further, the TGI in [1], in assay [2], in assay [3], in assay [4], in assay [5] and in assay [6] was above 50 µM each time. In addition, the TGI in [7], in assay [8], in [9] and in assay [10] was above 50 µM each time.
On to `CCN(CC)c1ccc(C(O)C2=CC(=O)c3ccccc3C2=O)cc1` (centres undefined), for which the GI50 in assay [1] was 2.23 µM; in assay [2] it was 1.58 µM; in [3], 0.156 µM; in [4], above 32.9 µM; in [5], 1.94 µM; in [6] it was 1.32 µM. The GI50 was 3.07 µM in assay [7], 0.694 µM in [8], 1.75 µM in assay [9] and 1.58 µM in assay [10]. Besides, the TGI is 7.45 µM in assay [1]; 6.31 µM in [2]; 0.959 µM in assay [3]; above 100 µM in assay [4]; 3.66 µM in [5]; 5.53 µM in assay [6]. Further, the TGI is 8.22 µM in assay [7], 5.26 µM in [8], 4.6 µM in assay [9] and 3.59 µM in [10].
With `C[C@@]12CCC[C@@](C)(C(=O)O)C1CC[C@]13C[C@@](O)(CO)[C@](O)(CCC12)C3` (some centres undefined), the GI50 in assay [1], in assay [2], in assay [3], in assay [4], in assay [5] and in [6] was above 100 µM throughout. Also, the GI50 in [7] was above 100 µM; in assay [8], 55.3 µM; in assay [9] it was above 100 µM; in [10], above 100 µM. Also, the TGI in assay [1], in [2], in assay [3], in assay [4], in assay [5] and in assay [6] was above 100 µM in each case. In addition, the TGI in assay [7], in assay [8], in [9] and in assay [10] was above 100 µM in each case.
Consider `CC(C)=CCC/C(C)=C/CC/C(C)=C/CSc1ccccc1C(=O)O`, for which the GI50 in assay [1] is 25.2 µM; in assay [2], 33.5 µM; in assay [3], 27 µM; in assay [4] it was 34.5 µM; in assay [5] it was 23.1 µM; in assay [6], 33 µM. Moreover, the GI50 is 19.4 µM in [7], 22.5 µM in [8] and 36.8 µM in assay [10]. Moreover, the TGI in [1] was 60.7 µM and 40 µM; in assay [2], 99.1 µM and 56 µM; in [3], > 59.3 µM and 34.1 µM; in assay [4], > 100 µM and 47.3 µM; in assay [5], 62.6 µM and 36.3 µM; in [6] it was > 100 µM and 44.5 µM. The TGI in [7] is 40.4 µM and 32.2 µM; in assay [8] it was 59.1 µM; in [9] it was above 100 µM; in [10], > 100 µM and 48.4 µM.
With `Cn1cnc([N+](=O)[O-])c1Sc1nc(N)nc2c1ncn2C1CC(O)C(CO)O1` (centres undefined), the TGI was above 100 µM in assay [1]; above 54.2 µM in [2]; above 100 µM in assay [3]; above 100 µM in assay [4]; above 100 µM in assay [5]; above 100 µM in assay [6]. Moreover, the TGI in assay [7] is above 100 µM; in [8], 18.7 µM; in assay [9], above 92.8 µM; in [10] it was above 34.3 µM.
`C=C1CCC2C3(C)COC(c4ccccc4)OC3CCC2(C)C1/C=C/C1=CCOC1=O` (centres undefined): the GI50 was 14.1 µM in assay [1]; 1.96 µM in [2]; 4.75 µM in assay [3]; 3.17 µM in [4]; 9.58 µM in assay [5]; 1.86 µM in [6]. For the same compound, the GI50 is 6.29 µM in assay [7], 1.27 µM in [8], 8.74 µM in assay [9] and 4.09 µM in assay [10]. In addition, the TGI is 51.9 µM in assay [1]; 7.59 µM in assay [2]; 51.3 µM in assay [3]; above 100 µM in assay [4]; 22 µM in [5]; 8.61 µM in [6]. The TGI in assay [7] worked out at 20.8 µM; in assay [8] it was 4.06 µM; in [9], 22 µM; in assay [10], 16.8 µM.
Take `Clc1ccc(-c2c3c(nn2-c2ccccn2)CCc2ccccc2-3)cc1Cl`: the GI50 in assay [1] is 95.2 µM; in assay [2], above 100 µM; in assay [3], above 100 µM; in assay [4], above 100 µM; in assay [5] it was above 100 µM; in [6] it was above 100 µM. In addition, the GI50 is above 100 µM in assay [7], 78.1 µM in assay [8], 74 µM in assay [9] and above 100 µM in [10]. The TGI in assay [1], in assay [2], in assay [3], in assay [4], in assay [5] and in assay [6] was above 100 µM each time. The TGI in [7], in assay [8], in assay [9] and in assay [10] was above 100 µM throughout.
As to `COc1cc(-c2cc(O)c(-c3ccc4ccccc4n3)c(=O)[nH]2)cc(OC)c1OC`, the TGI was above 67.7 µM in assay [1]; above 100 µM in assay [2]; above 100 µM in assay [3]; above 100 µM in assay [4]; above 94.2 µM in assay [5]; above 100 µM in assay [6]. In addition, the TGI in [7] was above 100 µM; in assay [8] it was 20.9 µM; in assay [9], above 89.8 µM; in [10], above 93.2 µM.
As to `[N-]=[N+]=NCCCCCC(=O)OC(C(=O)c1ccccc1)c1cccc(OCC(=O)NCCOCCOCCNC(=O)CCCC[C@@H]2SC[C@@H]3NC(=O)N[C@@H]32)c1` (some centres undefined), the GI50 in assay [1] was above 100 µM; in [2] it was 51.3 µM; in assay [3], above 100 µM; in assay [4], above 100 µM; in assay [5] it was above 100 µM; in assay [6] it was above 100 µM. In addition, the GI50 is 26.2 µM in assay [7], 22.6 µM in [8], above 100 µM in assay [9] and above 100 µM in [10]. In addition, the TGI in [1], in [2], in assay [3], in assay [4], in [5] and in assay [6] was above 100 µM throughout. The TGI in assay [7] was 84.7 µM; in [8], 60 µM; in assay [9], above 100 µM; in assay [10], above 100 µM.
